According to patent publication US20230287003A1, “BCL6 INHIBITORS” (Cancer Research Technology Limited, priority 2018, published 2023):

Tests used:
[1] = molecular target: human BCL6 BTB domain (Trx-6×His-BCL6) / BCOR-AF633 peptide (Homo sapiens (Human), UniProt P41182); assay: HTRF assay; assay type: binding; settings: 1 nM Trx-6×His-BCL6, 300 nM BCOR-AF633 peptide, 2 hours incubation
Method: The % inhibition at each concentration was calculated by normalising FRET ratio to the appropriate high (DMSO with all reagents) and low (DMSO without BCL6) controls.

[2] = molecular target: BCL6-NCOR2(SMRT) corepressor protein-protein interaction (Homo sapiens (Human), UniProt P41182); assay: NanoBRET cell assay; assay type: cell-based; settings: read-out: NanoBRET cell avg pIC50 (converted)
Text: At 20 hr post-transfection, cells were collected, washed with PBS, and exchanged into media containing phenol red-free OptiMEM+4% FBS (Life Technology).

Row | Compound | HTRF avg pIC50 (1 nM) [1] | IC50 [2]
1 | Cn1c(=O)c2c(c3cc(Nc4nc(N5C6CCC5CC(O)C6)ncc4Cl)ccc31)N[C@@H](C1CC1)CCO2 (stereo partly drawn) [Example 12f, (R)-10-((5-chloro-2-((1R,3R,5S)-3-hydroxy-8-azabicyclo[3.2.1]octan-8-yl)pyrimidin-4-yl)amino)-2-cyclopropyl-7-methyl-1,2,3,4-tetrahydro-[1,4]oxazepino[2,3-c]quinolin-6(7H)-one] | 7.96 | 295 nM
2 | Cn1c(=O)c2c(c3cc(Nc4nc(N5C6COCC5CC(O)C6)ncc4Cl)ccc31)N[C@@H](C1CC1)CCS2 (stereo partly drawn) [Example 15a, (R)-10-((5-chloro-2-((1R,5S,7S)-7-hydroxy-3-oxa-9-azabicyclo[3.3.1]-nonan-9-yl)pyrimidin-4-yl)amino)-2-cyclopropyl-7-methyl-1,2,3,4-tetrahydro-[1,4]thiazepino[2,3-c]quinolin-6(7H)-one] | 8.12 | 28.8 nM
3 | Cn1c(=O)c2c(c3cc(Nc4nc(-n5ccc(C(F)(F)F)n5)ncc4Cl)ccc31)N[C@@H](C1CC1)CCO2 [Example 5a, (R)-10-((5-chloro-2-(3-(trifluoromethyl)-1H-pyrazol-1-yl)pyrimidin-4-yl)amino)-2-cyclopropyl-7-methyl-1,2,3,4-tetrahydro-[1,4]oxazepino[2,3-c]quinolin-6(7H)-one] | 7.03 | 617 nM
4 | Cn1c(=O)c2c(c3cc(Nc4nc(N5C6COCC5CC(O)C6)ncc4Cl)ccc31)NC(C1CC1)C(F)(F)CO2 [Example 11a, 10-((5-chloro-2-((1R,5S,7s)-7-hydroxy-3-oxa-9-azabicyclo[3.3.1]nonan-9-yl)pyrimidin-4-yl)amino)-2-cyclopropyl-3,3-difluoro-7-methyl-1,2,3,4-tetrahydro-[1,4]oxazepino[2,3-c]quinolin-6(7H)-one] | 8.81 | 5.01 nM
5 | O=c1c2c(c3cc(Nc4nc(N5C6COCC5CC(O)C6)ncc4Cl)ccc3n1CC1CC(F)(F)C1)N[C@@H](C1CC1)CCO2 (stereo partly drawn) [Example 5u, (R)-10-((5-chloro-2-((1R,5S,7S)-7-hydroxy-3-oxa-9-azabicyclo[3.3.1]nonan-9-yl)pyrimidin-4-yl)amino)-2-cyclopropyl-7-((3,3-difluorocyclobutyl)methyl)-1,2,3,4-tetrahydro-[1,4]oxazepino[2,3-c]quinolin-6(7H)-one] | 8.08 | 28.8 nM
6 | COCC1(C)CCOc2c(c3cc(Nc4ccnc(Cl)c4C#N)ccc3n(C)c2=O)N1 (stereo not drawn) [Example 1g, 2-chloro-4-((2-(methoxymethyl)-2,7-dimethyl-6-oxo-1,2,3,4,6,7-hexahydro-[1,4]oxazepino[2,3-c]quinolin-10-yl)amino)nicotinonitrile] | 6.30 | 2510 nM
7 | Cn1c(=O)c2c(c3cc(Nc4ccnc(Cl)c4C#N)ccc31)N[C@@H](C1CC1)COC2 [Example 9b, (S)-2-chloro-4-((2-cyclopropyl-7-methyl-6-oxo-1,2,3,5,6,7-hexahydro-[1,4]oxazepino[6,5-c]quinolin-10-yl)amino)nicotinonitrile] | 6.57 | 2000 nM
8 | Cn1c(=O)c2c(c3cc(Nc4nc(N5CC6CCC(C5)O6)ncc4Cl)ccc31)N[C@@H](C1CC1)CCO2 [Example 12g, (R)-10-((2-(8-oxa-3-azabicyclo[3.2.1]octan-3-yl)-5-chloropyrimidin-4-yl)amino)-2-cyclopropyl-7-methyl-1,2,3,4-tetrahydro-[1,4]oxazepino[2,3-c]quinolin-6(7H)-one] | 7.54 | 776 nM
9 | CN1CC2CCC(C1)N2c1ncc(Cl)c(Nc2ccc3c(c2)c2c(c(=O)n3C)OCC[C@H](C3CC3)N2)n1 [Example 12i, (R)-10-((5-chloro-2-(3-methyl-3,8-diazabicyclo[3.2.1]octan-8-yl)pyrimidin-4-yl)amino)-2-cyclopropyl-7-methyl-1,2,3,4-tetrahydro-[1,4]oxazepino[2,3-c]quinolin-6(7H)-one] | 7.81 | 148 nM
10 | Cn1c(=O)c2c(c3cc(Nc4cc(C(=O)N5CC(C(F)(F)F)C5)nc(Cl)c4C#N)ccc31)N[C@@H](C1CC1)CCO2 [Example 3b, (R)-2-chloro-4-((2-cyclopropyl-7-methyl-6-oxo-1,2,3,4,6,7-hexahydro-[1,4]oxazepino[2,3-c]quinolin-10-yl)amino)-6-(3-(trifluoromethyl)azetidine-1-carbonyl)nicotinonitrile] | 7.32 | 646 nM
11 | O=c1c2c(c3cc(Nc4nc(N5C6CCC5COC6)ncc4Cl)ccc3n1CC1CC1)N[C@@H](C1CC1)CCO2 [Example 5r, (R)-10-((2-(3-oxa-8-azabicyclo[3.2.1]octan-8-yl)-5-chloropyrimidin-4-yl)amino)-2-cyclopropyl-7-(cyclopropylmethyl)-1,2,3,4-tetrahydro-[1,4]oxazepino[2,3-c]quinolin-6(7H)-one] | 7.41 | 43.7 nM
12 | Cn1c(=O)c2c(c3cc(Nc4nc(N5CC(F)(F)C[C@@H]5CO)ncc4Cl)ccc31)N[C@@H](C1CC1)C(F)(F)CO2 [Example 12x, (S)-10-((5-chloro-2-((R)-4,4-difluoro-2-(hydroxymethyl)pyrrolidin-1-yl)pyrimidin-4-yl)amino)-2-cyclopropyl-3,3-difluoro-7-methyl-1,2,3,4-tetrahydro-[1,4]oxazepino[2,3-c]quinolin-6(7H)-one] | 8.20 | 145 nM
